{
  "source": "ChEMBL document CHEMBL5236579",
  "about": "“Hydrophobicity Determines the Bacterial Killing Rate of α-Helical Antimicrobial Peptides and Influences the Bacterial Resistance Development” (J Med Chem, 2022)",
  "key": {"[1]": {"tested_on": "Staphylococcus aureus", "assay": "Antimicrobial activity against Staphylococcus aureus ATCC25923 by two fold broth microdilution method", "format": "functional", "conditions": "read-out: MIC"}, "[2]": {"tested_on": "Cell membrane", "assay": "Induction of outer membrane permeabilization in Escherichia coli ATCC25722 assessed as increase fluorescence intensity at 0.5 to 2 times of MIC by NPN uptake assay", "format": "cell membranes", "conditions": "time <= 15.0 min, TDE = time-dependent effect"}, "[3]": {"tested_on": "Lipopolysaccharide (LPS)", "assay": "Binding affinity to Escherichia coli LPS assessed as LPS neutralizing activity measured after 60 mins by LPS neutralization assay"}, "[4]": {"tested_on": "Vibrio parahaemolyticus", "assay": "Induction of morphological changes in Vibrio parahaemolyticus ATCC17802 assessed as massive cell collapse incubated at 5 times MIC and measured after 180 mins by scanning electron microscopy based analysis", "format": "functional, organism-based"}, "[5]": {"assay": "Effect on morphological changes in POPC/POPG (3:1) bilayer membrane assessed as formation of bulge aggregates by measuring the height of bulges at 2 ug/ml incubated for 40 mins under neutral pH and low ionic strength by atomic force microscopic analysis", "format": "cell membranes", "conditions": "Cell membrane, dose 2.0 µg/ml"}, "[6]": {"tested_on": "Escherichia coli", "assay": "In vivo antibacterial activity against Escherichia coli ATCC25722 infected in Balb/c mouse model assessed as reduction in bacterial CFU count on skin at 20 ug/ml incubated for 6 hrs post infection and measured after 2 hrs post compound treatment", "format": "functional, organism-based", "conditions": "dose 20.0 µg/ml, time 8.0 hrs"}, "[7]": {"tested_on": "HaCaT", "assay": "Cytotoxicity against human HaCaT cells incubated for 48 hrs by MTT assay", "format": "toxicity, cell-based", "conditions": "dose < 250 µg/ml"}, "[8]": {"tested_on": "Escherichia coli", "assay": "Antimicrobial activity against Escherichia coli ATCC27622 by two fold broth microdilution method", "format": "functional"}, "[9]": {"tested_on": "Vibrio parahaemolyticus", "assay": "Induction of bacterial resistance in Vibrio parahaemolyticus ATCC17802 assessed as fold increase in MIC treated over 30 serial passages measured after 24 hrs", "format": "functional"}, "[10]": {"tested_on": "Lipopolysaccharide (LPS)", "assay": "Binding affinity to Escherichia coli LPS assessed as LPS neutralizing activity measured after 5 mins by LPS neutralization assay"}, "[11]": {"tested_on": "Peritoneal macrophage", "assay": "Cytotoxicity against mouse peritoneal macrophage cells incubated for 48 hrs by MTT assay", "format": "toxicity, cell-based", "conditions": "dose < 250 µg/ml"}, "[12]": {"tested_on": "Lipopolysaccharide (LPS)", "assay": "Binding affinity to Escherichia coli LPS assessed as dissociation constant measured upto 600 sec by surface plasmon resonance imaging method"}, "[13]": {"tested_on": "Staphylococcus aureus", "assay": "Antimicrobial activity against clinical isolates Staphylococcus aureus by two fold broth microdilution method", "format": "functional"}, "[14]": {"tested_on": "Cell membrane", "assay": "Binding affinity to Vibrio parahaemolyticus ATCC17802 cell membrane assessed as increase in fluorescence intensity measured after 30 mins by flow cytometry analysis (reference value: 1.85%)", "format": "cell membranes"}, "[15]": {"tested_on": "Cell membrane", "assay": "Induction of outer membrane permeabilization in Vibrio parahaemolyticus ATCC17802 assessed as increase fluorescence intensity at 0.5 to 2 times of MIC by NPN uptake assay", "format": "cell membranes", "conditions": "time <= 15.0 min, TDE = time-dependent effect"}, "[16]": {"tested_on": "Escherichia coli", "assay": "In vivo antibacterial activity against Escherichia coli ATCC25722 infected in Balb/c mouse model assessed as reduction in bacterial CFU count on skin at 20 ug/ml applied 4 hrs after infection and measured after 120 mins", "format": "functional, organism-based", "conditions": "dose 20.0 µg/ml"}, "[17]": {"tested_on": "Cell membrane", "assay": "Induction of cytoplasmic membrane permeabilization in Vibrio parahaemolyticus […] assessed as calcein transmembrane diffusion into interior of gaint unilamellar vesicles by measuring time to equilibrium between inside and outside of vesicles at 2 ug/mL by confocal microscopy based calcein-AM leakage assay", "format": "cell membranes", "conditions": "dose 2.0 µg/ml"}, "[18]": {"tested_on": "Cell membrane", "assay": "Binding affinity to Vibrio parahaemolyticus ATCC17802 cell membrane assessed as increase in fluorescence intensity measured after 120 mins by flow cytometry analysis (reference value: 1.88%)", "format": "cell membranes"}, "[19]": {"tested_on": "Bacillus cereus", "assay": "Antimicrobial activity against clinical isolates Bacillus cereus by two fold broth microdilution method", "format": "functional"}, "[20]": {"tested_on": "Cell membrane", "assay": "Induction of inner membrane permeabilization in Vibrio parahaemolyticus ATCC17802 assessed as increase in PI fluorescence intensity at 5 times MIC by propidium iodide penetration assay", "format": "cell membranes", "conditions": "time <= 200.0 min"}, "[21]": {"tested_on": "Cell membrane", "assay": "Induction of outer membrane permeabilization in Escherichia coli ATCC25722 assessed as increase fluorescence intensity measured upto 15 mins by NPN uptake assay", "format": "cell membranes"}, "[22]": {"tested_on": "Cell membrane", "assay": "Induction of inner membrane permeabilization in Vibrio parahaemolyticus ATCC17802 at 5 times MIC measured upto 200 mins by propidium iodide penetration assay", "format": "cell membranes"}, "[23]": {"tested_on": "Vibrio parahaemolyticus", "assay": "Induction of morphological changes in Vibrio parahaemolyticus ATCC17802 assessed as cellular inclusion leakage incubated at 5 times MIC and measured after 180 mins by scanning electron microscopy based analysis", "format": "functional, organism-based"}, "[24]": {"assay": "Hemolytic activity in human erythrocytes measured after 30 mins", "format": "toxicity, cell-based", "conditions": "erythrocyte, 0.5 h"}, "[25]": {"tested_on": "Vibrio parahaemolyticus", "assay": "Antimicrobial activity against Vibrio parahaemolyticus ATCC17802 by two fold broth microdilution method", "format": "functional"}, "[26]": {"tested_on": "Cell membrane", "assay": "Induction of outer membrane permeabilization in Vibrio parahaemolyticus ATCC17802 assessed as increase fluorescence intensity measured upto 15 mins by NPN uptake assay", "format": "cell membranes"}, "[27]": {"tested_on": "Vibrio parahaemolyticus", "assay": "Bactericidal activity against Vibrio parahaemolyticus ATCC17802 assessed as killing rate at 0.5 X MIC by measuring time limit of detection by bacterial killing kinetic assay", "format": "functional"}, "[28]": {"tested_on": "Vibrio parahaemolyticus", "assay": "Induction of morphological changes in Vibrio parahaemolyticus ATCC17802 assessed as surface fibrosis incubated at 5 times MIC and measured after 180 mins by scanning electron microscopy based analysis", "format": "functional, organism-based"}, "[29]": {"tested_on": "Escherichia coli", "assay": "Bactericidal activity against Escherichia coli ATCC25722 assessed as killing rate at 0.5 X MIC measured upto 180 min by bacterial killing kinetic assay", "format": "functional, organism-based"}, "[30]": {"tested_on": "Staphylococcus aureus", "assay": "Bactericidal activity against Staphylococcus aureus ATCC25923 assessed as killing rate at 0.5 X MIC measured upto 180 min by bacterial killing kinetic assay", "format": "functional, organism-based"}},
  "note": "pKd: −log10 of the molar value. Active and inactive are the calls of the source. No cut-off for these calls is given here. Where a SMILES comes first, the peptide text is derived from it.",
  "data": [
    {"molecule": "CC[C@H](C)[C@H](NC(=O)[C@H](CCCCN)NC(=O)[C@H](CCCNC(=N)N)NC(=O)[C@H](CC(C)C)NC(=O)[C@H](CC(C)C)NC(=O)[C@H](CCCCN)NC(=O)[C@H](CCCCN)NC(=O)[C@H](Cc1ccccc1)NC(=O)[C@H](CC(C)C)NC(=O)CNC(=O)[C@@H](N)CCCNC(=N)N)C(=O)N[C@@H](CCCCN)C(=O)N[C@@H](CCCCN)C(=O)NCC(=O)N[C@@H](Cc1ccccc1)C(=O)N[C@@H](CCCCN)C(=O)N[C@@H](CCCCN)C(=O)O", "note": "(H-RGLFKKLLRKIKKGFKK-OH)", "values": [
      {"measurement": "MIC", "setting": "[1]", "value": 2.34, "unit": "µg/mL"},
      {"measurement": "Activity", "setting": "[2]", "value": "Tde"},
      {"measurement": "Activity", "setting": "[3]", "value": "Active"},
      {"measurement": "Activity", "setting": "[4]", "value": "Active"},
      {"measurement": "Activity", "setting": "[5]", "value": 1, "unit": "nm"},
      {"measurement": "Activity", "setting": "[6]", "value": "Active"},
      {"measurement": "Activity", "setting": "[7]", "value": "Dose-Dependent Effect"},
      {"measurement": "MIC", "setting": "[8]", "value": 4.69, "unit": "µg/mL"},
      {"measurement": "fold change (FC)", "setting": "[9]", "value": 16},
      {"measurement": "Activity", "setting": "[10]", "value": "inactive"},
      {"measurement": "Activity", "setting": "[11]", "value": "Dose-Dependent Effect"},
      {"measurement": "pKd", "setting": "[12]", "value": 4.63},
      {"measurement": "MIC", "setting": "[13]", "value": 18.8, "unit": "µg/mL"},
      {"measurement": "Activity", "setting": "[14]", "value": 20.6, "unit": "%"},
      {"measurement": "Activity", "setting": "[15]", "value": "Tde"},
      {"measurement": "Activity", "setting": "[16]", "value": "inactive"},
      {"measurement": "TIME", "setting": "[17]", "value": 1, "unit": "h"},
      {"measurement": "Activity", "setting": "[18]", "value": 99.5, "unit": "%"},
      {"measurement": "MIC", "setting": "[19]", "value": 9.38, "unit": "µg/mL"},
      {"measurement": "Activity", "setting": "[20]", "value": "Active"},
      {"measurement": "Activity", "setting": "[21]", "value": "Dose-Dependent Effect"},
      {"measurement": "Activity", "setting": "[22]", "value": "Active"},
      {"measurement": "Activity", "setting": "[23]", "value": "Active"},
      {"measurement": "Activity", "setting": "[24]", "value": "Toxic"},
      {"measurement": "MIC", "setting": "[25]", "value": 4.69, "unit": "µg/mL"},
      {"measurement": "Activity", "setting": "[26]", "value": "Dose-Dependent Effect"},
      {"measurement": "Time", "setting": "[27]", "value": 120, "unit": "min"},
      {"measurement": "Activity", "setting": "[28]", "value": "Active"}
    ]},
    {"molecule": "CC[C@H](C)[C@H](NC(=O)[C@H](CCCCN)NC(=O)[C@H](CCCCN)NC(=O)[C@H](CC(C)C)NC(=O)[C@H](CCCCN)NC(=O)[C@H](CCCCN)NC(=O)[C@H](CC(C)C)NC(=O)[C@@H](NC(=O)[C@H](CCCCN)NC(=O)[C@H](CCCCN)NC(=O)[C@H](Cc1c[nH]c2ccccc12)NC(=O)[C@H](Cc1ccccc1)NC(=O)[C@H](CCCCN)NC(=O)[C@H](CCCNC(=N)N)NC(=O)[C@H](CCCNC(=N)N)NC(=O)[C@@H](N)CCCCN)C(C)C)C(=O)N[C@@H](CC(C)C)C(=O)O", "note": "(H-KRRKFWKKVLKKLKKIL-OH)", "values": [
      {"measurement": "MIC", "setting": "[1]", "value": 2.34, "unit": "µg/mL"},
      {"measurement": "MIC", "setting": "[8]", "value": 4.69, "unit": "µg/mL"},
      {"measurement": "Activity", "setting": "[29]", "value": "Active"},
      {"measurement": "MIC", "setting": "[13]", "value": 9.38, "unit": "µg/mL"},
      {"measurement": "MIC", "setting": "[19]", "value": 4.69, "unit": "µg/mL"},
      {"measurement": "Activity", "setting": "[30]", "value": "Active"},
      {"measurement": "MIC", "setting": "[25]", "value": 2.34, "unit": "µg/mL"},
      {"measurement": "Time", "setting": "[27]", "value": 15, "unit": "min"}
    ]},
    {"molecule": "CC[C@H](C)[C@H](NC(=O)[C@H](CCCCN)NC(=O)[C@H](CCCCN)NC(=O)[C@H](C)NC(=O)[C@H](CCCCN)NC(=O)[C@H](CCCCN)NC(=O)[C@H](CC(C)C)NC(=O)[C@@H](NC(=O)[C@H](CCCCN)NC(=O)[C@H](CCCCN)NC(=O)[C@H](Cc1c[nH]c2ccccc12)NC(=O)[C@H](Cc1ccccc1)NC(=O)[C@H](CCCCN)NC(=O)[C@H](CCCNC(=N)N)NC(=O)[C@H](CCCNC(=N)N)NC(=O)[C@@H](N)CCCCN)C(C)C)C(=O)N[C@@H](C)C(=O)O", "note": "(H-KRRKFWKKVLKKAKKIA-OH)", "values": [
      {"measurement": "MIC", "setting": "[1]", "value": 2.34, "unit": "µg/mL"},
      {"measurement": "MIC", "setting": "[8]", "value": 9.38, "unit": "µg/mL"},
      {"measurement": "Activity", "setting": "[29]", "value": "Active"},
      {"measurement": "MIC", "setting": "[13]", "value": 18.8, "unit": "µg/mL"},
      {"measurement": "MIC", "setting": "[19]", "value": 4.69, "unit": "µg/mL"},
      {"measurement": "Activity", "setting": "[30]", "value": "Active"},
      {"measurement": "MIC", "setting": "[25]", "value": 4.69, "unit": "µg/mL"},
      {"measurement": "Time", "setting": "[27]", "value": ">180", "unit": "min"}
    ]}
  ]
}
